According to patent US20240366540A1, “MITOFUSIN INHIBITORS AND USES THEREOF” (Albert Einstein College of Medicine, priority 2021, published 2024):
Starred links: 1 amine or outer side, 2 acyl side, 3 side chain; linkers in the order of their positions; H or OH if unused. Positions of bridges follow the written chain, without caps; N, C: chain ends. Non-standard residues stand in square brackets, D forms with d. Residues, ends and D or L forms follow the SMILES beside them. Chains are numbered I, II in the order given. Hexamethylenediamine = C(CCCN[*:2])CCN[*:1]; Dip = N[C@H](C(=O)O)C(c1ccccc1)c1ccccc1; Chg = N[C@H](C(=O)O)C1CCCCC1; NMeA = CN[C@@H](C)C(=O)O

Key:
MEFs [1] = experiment: Mitochondrial aspect ratio (Mito AR), live cell imaging; conditions: for activity to promote mitochondrial fusion or fision: MASMs: fusion, MFIs: fission; for capacity to promote mitochondrial fragmentation in cells (activity of MFI8 analogue): compared with MFI8; for mitochondrial aspect ratio: MEFs, MitoTracker Green
Procedure: Live cell imaging. MEFs were seeded on chamber slides (MatTek Corporation: 35 mm dishes, No. 1.5, 14 mm glass diameter) at ˜70% confluence. […] Images were taken with Leica SP5 inverted confocal microscope. Data were analyzed with Image J software. >200 mitochondria were measured per condition in mitochondrial aspect ratio.
Measurement of mitochondrial aspect ratio (Mito AR). Images that depict stained mitochondria with mitotracker green were analyzed using FIJI We measured for each mitochondrion its length and width. Then, we divided the length by the width for each mitochondrion to get its mitochondrial aspect ratio. >200 mitochondria were measured per treatment.

[2] = target: T1, HR2 domain of MFN2 (residues 678-757) (Homo sapiens, UniProt O95140); experiment: Microscale thermophoresis (MST) binding; conditions: His-tagged MFN2-HR2, 30° C.
T1 sequence (O95140 678-757): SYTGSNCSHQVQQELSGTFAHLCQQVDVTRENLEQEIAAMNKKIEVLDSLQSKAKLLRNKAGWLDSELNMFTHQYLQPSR
Procedure: Microscale Thermopheresis. Freshly purified His-tagged MFN2-HR2 domain was used for Microscale Thermophoresis (MST) binding studies. For protein labelling, a fresh stock of 5 μM His-tag-RED-tris-NTA 2nd generation dye (Nanotemper) in 25 mM Hepes pH 7.5, 100 mM NaCl, 0.005% Tween-20 (assay buffer) was used to label 500 nM of MFN2-HR2 in the same buffer. The labeling reaction was incubated for 30 min at RT and centrifuged at 15.000×g at 4° C. for 10 min. Labelled protein from the supernatant was kept on ice and used immediately. Compounds were serially diluted in 100% DMSO. Immediately before mixing with labeled protein, the dilution series was transferred in assay buffer to reach 2% DMSO. 10 μl of each compound in the final series was mixed with 10 μl of labeled protein and samples were incubated for 5 min at 30° C. before MST measurement using a MonolithNT.115 instrument (Nanotemper). Peptides were diluted in assay buffer plus 2% DMSO and treated as above. […] Kd values were obtained from non-linear regression fits of normalized data to a three or four parameter logistic curve, using GraphPad Prism 9.

MEFs [3] = experiment: Caspase-3/7 activation assay; assay type: cell-based, mouse; conditions: 6 hr, Caspase-Glo 3/7
Procedure: Caspase-3/7 activation assay. Cells (5×10^3 cells/well) were seeded in a 96-well white plate and treated with MASM7, MFI8. Caspase 3/7 activation was measured after 6 hr by addition of the Caspase-Glo 3/7 reagent according to the manufacturer's protocol (Promega). Luminescence was detected by a F200 PRO microplate reader (TECAN). Caspase assays were performed in at least triplicate and the data normalized to vehicle-treated control wells. Dilutions of MASM7 or MFI8 were performed using a TECAN D300e Digital Dispenser from 10 mM stocks.

cells = experiment: Cell death assay (Annexin V / propidium iodide); assay type: cell-based
Procedure: Cell death assay. Cells (2×10^5 cells/well) were seeded in a 6-well plate and treated with the indicated drugs for 6 hours. Cells were dissociated using Accutase (Thermo Fisher; Cat. #00-4555-56) in order to avoid accidental exposure of phosphatidylserine on the outer plasma membrane. Cell death was evaluated with Dead Cell Apoptosis Kit with Annexin V Alexa Fluor™ 488 & Propidium Iodide (Thermo Fisher; Cat. #V13241) according to manufacturer's protocol. Data was acquired by BD LSRII flow cytometer system using BD FACSDiva software. Data was analyzed by FlowJo (BD).

[4] = target: the molecule itself; experiment: blue native PAGE of digitonin lysates of isolated MEF mitochondria, anti-MFN2 blot

What does the source list for Cc1cccc(NC(C)c2cccc(Cl)c2)c1C (centres unmarked) [MFI26, N-(1-(3-chlorophenyl)ethyl)-2,3-dimethylaniline]?
activity to promote mitochondrial fusion or fision (MEFs [1]): inability or weak activity; capacity to promote mitochondrial fragmentation in cells (activity of MFI8 analogue) (MEFs [1]): detrimental for the activity; direct binding to the HR2 domain of MFN2 (MST) [2]: did not demonstrate measurable binding

Which results are given for Cc1cccc(NC(C)c2ccccc2O)c1C (centres unmarked) [MFI22, 2-(1-((2,3-Dimethylphenyl)amino)ethyl)phenol]?
activity to promote mitochondrial fusion or fision (MEFs [1]): inability or weak activity; capacity to promote mitochondrial fragmentation in cells (activity of MFI8 analogue) (MEFs [1]): significantly reduced the capacity of the compound to promote mitochondrial fragmentation; caspase-3/7 activity (MEFs [3]): did not increase caspase-3/7 activity; sensitization to BV6-induced cell death (cells; in combination with BV6): did not sensitize cells to BV6 treatment; direct binding to the HR2 domain of MFN2 (MST) [2]: did not demonstrate measurable binding

Cc1cccc(NCc2cc(Cl)ccc2O)c1C [MFI23, 4-Chloro-2-(((2,3-dimethylphenyl)amino)methyl)phenol] was tested. Which mitochondrial aspect ratio (MEFs [1]) did it give?
Its mitochondrial aspect ratio is “decreasing”.

What about the “capacity to promote mitochondrial fragmentation in cells (activity of MFI8 analogue)” value (MEFs [1]) of the same molecule?
Its value is “minimal effect on the activity”.

What about the “direct binding to the HR2 domain of MFN2 (MST)” value [2] of the same molecule?
Its value is “demonstrated direct binding”.

CN[C@@H](C)C(=O)N[C@H](C(=O)N1CCC[C@H]1C(=O)N[C@H](C(=O)NCCCCCCNC(=O)[C@@H](NC(=O)[C@@H]1CCCN1C(=O)[C@@H](NC(=O)[C@H](C)NC)C1CCCCC1)C(c1ccccc1)c1ccccc1)C(c1ccccc1)c1ccccc1)C1CCCCC1 [BV6, reference compound] (I: H-[NMeA][Chg]P[Dip] / II: H-[NMeA][Chg]P[Dip]; linker I:C-II:C via Hexamethylenediamine) was tested. Which “cell death upon BV6 treatment” value (cells; deletion of MFNs) did it give?
The value was “sensitized cells to BV6 treatment”.

How did the mitochondrial aspect ratio (MEFs [1]) turn out when Cc1cccc(NCc2cc(Cl)ccc2O)c1 [MFI24, 4-Chloro-2-((m-tolylamino)methyl)phenol] was run?
The mitochondrial aspect ratio was “did not reduce mitochondrial aspect ratio”.

B1: MFN2 (endogenous, in mitochondria isolated from MEFs) (other, mouse (MEFs), UniProt Q80U63 1-757, looked up)
chain: MSLLFSRCNSIVTVKKDKRHMAEVNASPLKHFVTAKKKINGIFEQLGAYIQESASFLEDTHRNTELDPVTTEEQVLDVKGYLSKVRGISEVLARRHMKVAFFGRTSNGKSTVINAMLWDKVLPSGIGHTTNCFLRVGGTDGHEAFLLTEGSEEKKSVKTVNQLAHALHQDEQLHAGSMVSVMWPNSKCPLLKDDLVLMDSPGIDVTTELDSWIDKFCLDADVFVLVANSESTLMQTEKQFFHKVSERLSRPNIFILNNRWDASASEPEYMEEVRRQHMERCTSFLVDELGVVDRAQAGDRIFFVSAKEVLSARVQKAQGMPEGGGALAEGFQVRMFEFQNFERQFEECISQSAVKTKFEQHTVRAKQIAEAVRLIMDSLHIAAQEQRVYCLEMREERQDRLRFIDKQLELLAQDYKLRIKQITEEVERQVSTAMAEEIRRLSVLVDEYQMDFHPSPVVLKVYKNELHRHIEEGLGRNLSDRCSTAIASSLQTMQQDMIDGLKPLLPVSMRNQIDMLVPRQCFSLSYDLNCDKLCADFQEDIEFHFSLGWTMLVNRFLGPKNSRRALLGYSDQVQRPLPLTPANPSMPPLPQSSLTQEELMVSMVTGLASLTSRTSMGILVVGGVVWKAVGWRLIALSFGLYGLLYVYERLTWTTKAKERAFKRQFVEYASEKLQLIISYTGSNCSHQVQQELSGTFAHLCQQVDITRDNLEQEIAAMNKKVEALDSLQSRAKLLRNKAGWLDSELNMFTHQYLQPSR
notes: whole, on cells; The protein stood in isolated mitochondria, not on whole cells; It was solubilised with digitonin and resolved by blue native PAGE; also called mitofusin-2
Does B1 bind [4]?
Result: binds
